Assay [1] deals with Phosphodiesterase III (PDE III). The assay can be described thus: Phosphodiesterase III Inhibition. In kind it is biochemical, mongrel dogs (thoracic aorta). As to conditions: dog thoracic aorta PDE III; substrate concentration 1 μM; triplicate. As for the experimental part:
Procedure 1 --Phosphodiesterase III Inhibition
Phosphodiesterase III (PDE III) was obtained by a slight modification of the methods of Thompson et al. [Advances in Cyclic Nucleotide Research vol. […] Thoracic aorta from mongrel dogs was minced with fine scissors and homogenized in 10 volumes of a buffer containing 10 mM tris acetate, pH 7.5, 2 mM magnesium chloride, 1mM dithiothreitol and 2000 units per mL of aprotinin. This and subsequent procedures were performed at 0-4°. The tissue was homogenized, the homogenate was sonicated and the resultant homogenate was centrifuged at 48,000 g for 30 minutes. The resulting supernatant fraction was applied to a diethylaminoethyl ether (DEAE) cellulose column that had been equilibrated with 35 or 70 mM sodium acetate containing 1 mM dithiothreitol at pH 6.5. After application of the sample, the column was washed with 2-3 bed volumes of the equilibration buffer and the PDE isozyme was eluted from the column using a continuous sodium acetate gradient to 1 molar. Fractions of approximately 5 mL were collected and assayed for cAMP and cGMP PDE activity at substrate concentrations of 1 μM. Appropriate fractions corresponding to peak three were pooled and dialyzed against 70 mM sodium acetate, 0.5 mM dithiothreitol for at least 20 hours.

The next assay relates to mean arterial pressure. In words: In vivo Vasodilation in the Rat. Further details: species or system normotensive male Sprague-Dawley rats. As to conditions: 0.4 mg/kg, orally by gavage. How it is done:
Procedure 2--In vivo Vasodilation in the Rat
Normotensive male Sprague-Dawley rats of 325-425 g were anesthetized with sodium pentobarbital and an arterial catheter was placed in the abdominal aorta via the femoral artery. The catheter was tunneled subcutaneously, exteriorized at the nape of the neck, filled with heparinized saline and sealed with a stainless steel plug. The wounds were sutured and a suspension of penicillin G benzathine and penicillin G procaine was administered subcutaneously. All animals were allowed at least two days recovery prior to testing.
Rats were fasted 17 hours then placed into individual plexiglass boxes. The arterial catheter was connected to a Statham pressure transducer, positioned at the heart level, and the arterial pressure signal was recorded on a polygraph. The animals remained undisturbed for at least one hour to adapt to the testing environment. After the adaptation period, three baseline arterial pressure and heart rate measurements were taken at 15-minute intervals prior to the administration of the test drug. […] Arterial pressure and heart rate were measured at 15-minute intervals for the first hour and 30-minute intervals for the next four hours following the administration of drugs.
The data were analyzed by one-way analysis of variance for repeated measures. […]

A word on the IC50: it is the midpoint of a concentration-inhibition curve. A lower IC50 goes with inhibition by little substance.

As for `Cc1[nH]c(=O)c(C#N)cc1-c1ccc2ncccc2c1` [Example 3, 1,2-Dihydro-6-methyl-2-oxo-5-(6-quinolinyl)-3-pyridinecarbonitrile], the concentration for half-maximal inhibition (IC50) in assay [1] is 57 nM. For the same compound, in the assay on mean arterial pressure (conscious normotensive rats), the “area under the curve for reduction of mean arterial pressure” value is given as 75%. In addition, in the assay with mean arterial pressure (Student Newman-Keuls test, probability of less than 5%, to the end of the test at six hours), the “statistical significance of reduction of mean arterial pressure” value is given as “statistical significance at all times to the end of the test at six hours”.
In assay [1], `Cc1[nH]c(=O)c(C#N)cc1-c1ccncc1` [milrinone, reference compound] showed a concentration for half-maximal inhibition (IC50) of 500 nM.
